Results taken from patent US20040087629A1, “Tartrate salts of thiazolidinedione derivative” (priority 2003, published 2004).
Where two headings read alike, the source gives them in different places.

Settings: 1 month, product of Example 4

HPLC assay (final content) (40° C./75% Relative Humidity (RH), open exposure): 97 % initial
HPLC assay (final content) (50° C., closed): 98 % initial
Compound: CN(CCOc1ccc(CC2SC(=O)NC2=O)cc1)c1ccccn1.O=C(O)C(O)C(O)C(=O)O [L(+) Tartrate, 5-[4-[2-(N-methyl-N-(2-pyridyl)amino)ethoxy]benzyl]thiazolidine-2,4-dione L-(+)-tartrate]
